From patent publication US5880097A, “Tethered prodrugs” (Terrapin Techologies, Inc., priority 1996, dated 1999)
*1 amine or outer side, *2 acyl side, *3 side chain or, on linkers, in order; H or OH if unused. Where a SMILES comes first, the peptide text is derived from it. [ ]: non-standard residue; d: D form. The star is where a group is joined. γGlu = O=C(O)[C@H](CCC(=O)[*:2])N[*:1]; dPhg = N[C@@H](C(=O)O)c1ccccc1; Bn = c1ccc(C*)cc1

How the values were obtained:
[1] = biological target: T1, MRP system of human erythrocytes (Homo sapiens, UniProt P33527); assay: Inhibition of uptake of tritiated DNP-glutathione conjugate by inside-out vesicles of human erythrocytes; assay type: biochemical; settings: for inhibition of labeled conjugate (DNP-GSH) uptake: compound 1 μM, labeled DNP-GSH 5 μM, 15 minutes at 37° C., mean of three trials; for Interaction with MRP pump (reduction of transport of radiolabeled GSH analog): summary in words
T1 construct: from tissue; host or cells: human erythrocytes (membranes; inside-out vesicles)
Protocol: (§1) Two indirect measures of interaction of test compounds in the MRP system of human erythrocytes were used. The first was stimulation of basal Mg^+2 stimulated ATPase activity, the other was inhibition of transport of tritiated dinitrophenyl-S-glutathione.
In the alternative method, the uptake of tritiated DNP-glutathione conjugate by inside-out vesicles of human erythrocytes was determined as described in Akerboom, T. P. M. et al, Biochim Biophys Acta (1992) 1103.:115-119. The labeled DNP-GSH concentration was 5 μM and the compounds were added at a final concentration of 1 μM; uptake of labeled DNP-GSH was measured after 15 minutes incubation at 37° C.

[2] = biological target: T1, MRP system of human erythrocytes; assay: Stimulation of basal Mg+2 stimulated ATPase activity in erythrocyte membranes; assay type: biochemical; settings: 37° C., 30 minutes; for Km / Vmax of ATPase stimulation: average of three determinations
Protocol: as §1
In the first method, the method of Bartosz, M. et al, Biochem Mol Biol Int (1994) 34:521-529 was used. Briefly, the compounds were added to erythrocyte membranes in a medium containing 100 mM Tris HCl, […], 10 mM MgCl2, 1 mM ATP, 0.1 mM ouabain and 1 mM EGTA with an incubation at 37° C. for 30 minutes. Stimulation of ATPase activity was measured as described.

[3] = biological target: GST P1-1 (Homo sapiens, UniProt P09211); settings: cited from earlier work
[4] = biological target: T2, GST A1-1 (Homo sapiens, UniProt P08263); settings: as described in the PCT application WO 95/09866; cited from earlier work
T2 sequence (P08263 1-222): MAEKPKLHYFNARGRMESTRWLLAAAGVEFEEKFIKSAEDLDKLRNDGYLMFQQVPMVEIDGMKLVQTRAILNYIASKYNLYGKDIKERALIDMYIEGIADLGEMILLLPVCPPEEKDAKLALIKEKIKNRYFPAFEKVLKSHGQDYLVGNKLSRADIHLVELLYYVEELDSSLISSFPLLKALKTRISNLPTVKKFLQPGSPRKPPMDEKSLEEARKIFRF

T1 sequence (P33527 whole entry): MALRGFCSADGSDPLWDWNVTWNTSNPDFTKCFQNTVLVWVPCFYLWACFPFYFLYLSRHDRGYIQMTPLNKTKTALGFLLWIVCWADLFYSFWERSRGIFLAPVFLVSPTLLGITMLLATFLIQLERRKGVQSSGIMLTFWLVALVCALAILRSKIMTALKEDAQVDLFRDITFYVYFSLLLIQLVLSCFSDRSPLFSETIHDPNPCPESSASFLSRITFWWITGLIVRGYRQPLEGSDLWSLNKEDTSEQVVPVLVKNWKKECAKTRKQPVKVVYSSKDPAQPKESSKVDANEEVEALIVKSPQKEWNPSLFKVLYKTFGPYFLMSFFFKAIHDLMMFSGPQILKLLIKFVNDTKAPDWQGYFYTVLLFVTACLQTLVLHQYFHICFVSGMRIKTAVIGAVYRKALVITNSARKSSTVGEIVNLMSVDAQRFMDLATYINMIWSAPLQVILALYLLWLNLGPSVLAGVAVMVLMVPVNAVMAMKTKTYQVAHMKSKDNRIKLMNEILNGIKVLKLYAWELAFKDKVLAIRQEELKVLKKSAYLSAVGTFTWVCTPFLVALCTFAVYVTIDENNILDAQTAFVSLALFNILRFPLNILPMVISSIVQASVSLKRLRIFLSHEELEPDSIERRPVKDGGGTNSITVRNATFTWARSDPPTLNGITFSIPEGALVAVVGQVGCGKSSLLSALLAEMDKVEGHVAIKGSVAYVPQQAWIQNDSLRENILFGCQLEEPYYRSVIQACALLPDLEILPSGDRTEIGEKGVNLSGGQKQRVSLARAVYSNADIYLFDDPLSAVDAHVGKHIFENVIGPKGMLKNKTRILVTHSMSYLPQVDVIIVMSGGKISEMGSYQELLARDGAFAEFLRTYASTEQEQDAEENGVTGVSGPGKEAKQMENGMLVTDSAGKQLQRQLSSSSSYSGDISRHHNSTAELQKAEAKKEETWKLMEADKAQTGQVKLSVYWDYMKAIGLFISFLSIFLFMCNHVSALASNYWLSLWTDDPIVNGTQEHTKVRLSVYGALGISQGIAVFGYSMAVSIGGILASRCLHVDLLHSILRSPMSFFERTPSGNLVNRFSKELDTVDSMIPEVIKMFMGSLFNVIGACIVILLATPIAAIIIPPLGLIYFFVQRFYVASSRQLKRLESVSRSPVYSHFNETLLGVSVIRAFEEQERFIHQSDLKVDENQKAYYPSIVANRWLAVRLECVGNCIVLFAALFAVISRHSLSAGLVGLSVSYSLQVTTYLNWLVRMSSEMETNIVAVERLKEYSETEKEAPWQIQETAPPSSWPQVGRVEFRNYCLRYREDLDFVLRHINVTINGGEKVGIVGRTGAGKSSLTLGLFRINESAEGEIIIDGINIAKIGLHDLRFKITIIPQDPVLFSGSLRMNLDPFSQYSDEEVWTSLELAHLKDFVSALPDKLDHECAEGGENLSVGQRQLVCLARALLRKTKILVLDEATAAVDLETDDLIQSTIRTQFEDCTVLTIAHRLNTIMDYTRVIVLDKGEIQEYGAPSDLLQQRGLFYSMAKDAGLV
GST P1-1, sequence (P09211 2-210 limits assumed): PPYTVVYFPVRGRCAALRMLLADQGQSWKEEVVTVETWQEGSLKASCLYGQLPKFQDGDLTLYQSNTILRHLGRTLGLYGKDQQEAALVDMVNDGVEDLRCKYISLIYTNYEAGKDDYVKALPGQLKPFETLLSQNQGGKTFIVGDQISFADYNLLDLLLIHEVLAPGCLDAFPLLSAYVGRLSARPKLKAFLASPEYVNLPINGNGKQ

N[C@@H](CCC(=O)N[C@@H](CSCc1ccccc1)C(=O)NCCC(=O)O)C(=O)O [TER 106, γGlu-C(Bz)-βAla]
inhibition of labeled conjugate (DNP-GSH) uptake [1]: 66.2% | Interaction with MRP pump (reduction of transport of radiolabeled GSH analog) [1]: interact with MRP so as to reduce the transport of radiolabeled GSH analog | Km [2]: 1820 µM | Vmax of ATPase stimulation [2]: 209.6 mM/mg protein per hr

N[C@@H](CCC(=O)N[C@@H](CSCc1ccccc1)C(=O)N[C@@H](C(=O)O)c1ccccc1)C(=O)O [TER 117, γGlu-C(Bz)-.o slashed.Gly] (γGlu-Cys(Bn)-[dPhg]-OH)
inhibition of labeled conjugate (DNP-GSH) uptake [1]: 0.2% | Interaction with MRP pump (reduction of transport of radiolabeled GSH analog) [1]: does not | Stimulation of ATPase activity [2]: did not stimulate ATPase activity

N[C@@H](CCC(=O)N[C@@H](CSCc1ccccc1)C(=O)NCC(=O)O)C(=O)O [TER 222, γGlu-C(Bz)-Gly]
inhibition of labeled conjugate (DNP-GSH) uptake [1]: 62.5% | Interaction with MRP pump (reduction of transport of radiolabeled GSH analog) [1]: interact with MRP so as to reduce the transport of radiolabeled GSH analog | Km [2]: 385 µM | Vmax of ATPase stimulation [2]: 125.9 mM/mg protein per hr

N[C@@H](CCC(=O)N[C@@H](CS(=O)(=O)CCOP(=O)(N(CCCl)CCCl)N(CCCl)CCCl)C(=O)N[C@@H](C(=O)O)c1ccccc1)C(=O)O [TER 286]
Susceptibility to cleavage by GST P1-1 ([3]; as described in the PCT application WO 95/09866): particularly susceptible to cleavage | Isoenzyme specificity of prodrug ([3]; cells having GST complements high in the P1-1 isoform): has the desired isoenzyme specificity | Susceptibility to cleavage by GST A1-1 [4]: particularly susceptible to cleavage
